Measured values: ChEMBL document CHEMBL1201862, “PubChem BioAssay data set” (2004)
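48-hour exposure; five concentrations; linearly interpolated endpoints. Abbreviation: GI50, concentration required for 50% inhibition of growth.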 Active and inactive are the calls of the source. Rule as the data show it: active = GI50 up to about 1.1 µM and inactive = higher.

Assays:
Assay in all cases: NCI tumour cell line growth inhibition, 48 h
[1] = test system: DMS-114
[2] = test system: RXF 393
[3] = test system: HOP-18
[4] = test system: HT-29
[5] = test system: DMS-273
[6] = test system: SK-OV-3
[7] = test system: LXFL 529
[8] = test system: SK-MEL-2
[9] = test system: XF498
[10] = test system: KM-20L2
[11] = test system: RPMI-8226
[12] = test system: HOP-62

Measured: GI50

N#CCCOCN(CO)c1nc(N(CO)COCCC#N)nc(N(CO)COCCC#N)n1
inactive: [1] 24.3 µM | [2] 20.9 µM | [3] 24.3 µM | [4] 29.1 µM | [5] 18.7 µM | [6] > 100 µM | [7] 17 µM | [8] 19 µM | [9] 17.5 µM | [10] 25.9 µM | [11] 22.5 µM | [12] > 100 µM

COc1cc(Cc2ccc3c(c2C#N)N(C)c2ccccc2S3)cc(OC)c1OC
inactive: [1] 14.6 µM | [2] 15.3 µM | [3] 72.4 µM | [4] 53.7 µM | [5] 33.4 µM | [6] > 100 µM | [7] 6.87 µM | [8] > 100 µM | [9] 30.1 µM | [10] 36.1 µM | [11] 8.39 µM | [12] 59.7 µM
